Columns and labels:
[1] = tested on: human ileum monolayer culture; test: Transepithelial electrical resistance (TEER) in human ileum organoid monolayer cultures; assay type: cell-based; conditions: for TEER compared with control: 3 μM, vs DMSO (FIG. 1D)
Procedure: Each human ileum monolayer culture well was washed twice with fresh SBM on the apical side on day 6 before compound dosing. All compound stocks were 10 mM dissolved in DMSO. Each compound stock was individually mixed with fresh SBM to reach final compound concentration and dosed only on the apical side of the monolayer (total volume 200 μl). DMSO at the equivalent concentration was used as the vehicle control. Duplicate wells were dosed for each compound. Transepithelial electrical resistance (TEER) was used as a quantitative technique to measure of tight junction permeability. TEER values were recorded using a volt/ohm meter (MERS00002, Millipore) before and after dosing for all wells. Each of the duplicate TEER values following treatment were corrected for the individual well baseline TEER. Baseline corrected TEER for each example compound was compared to the average of the DMSO wells and expressed as a percent TEER of vehicle control. Intracellular pH was measured in human ileum stem cells grown as monolayers on 96 well Transwell plates cells incubated with 10 μM of pH sensitive dye BCECF-AM (Life Technologies, cat# B1150) for 30 min at 37° C., 5% CO2 in Na-containing buffer (120 mM NaCl, 10 mM HEPES, 10 mM glucose, 5 mM KCl, 2 mM CaCl2, 1 mM MgCl2, pH 7.4). After 30 min the dye was aspirated and cells were washed twice with Na-containing buffer.
Fluorescent readings were acquired every 5 minutes for a period of 30 minutes on a Flexstation microplate reader at dual excitation wavelengths of 495 nm and 439 nm and emission wavelength of 538 nm (Molecular Devices). The fluorescent ratio for pH indication was calculated from ratio of the two excitation wavelengths (495/439 nm).

[2] = tested on: human ileum stem cells grown as monolayers; test: Intracellular pH (BCECF-AM) in human ileum monolayers; assay type: cell-based; conditions: human ileum monolayer
[3] = target: T1, NHE3 (Homo sapiens, UniProt P48764); test: NHE3 activity in enterocytes by intracellular pH recovery following acid loading; assay type: cell-based
T1 construct: the increase in NHE3 expression after differentiation; endogenous in cells; host or cells: enterocytes (differentiated human ileum organoid monolayer cultures)
T1 sequence (P48764 26-834): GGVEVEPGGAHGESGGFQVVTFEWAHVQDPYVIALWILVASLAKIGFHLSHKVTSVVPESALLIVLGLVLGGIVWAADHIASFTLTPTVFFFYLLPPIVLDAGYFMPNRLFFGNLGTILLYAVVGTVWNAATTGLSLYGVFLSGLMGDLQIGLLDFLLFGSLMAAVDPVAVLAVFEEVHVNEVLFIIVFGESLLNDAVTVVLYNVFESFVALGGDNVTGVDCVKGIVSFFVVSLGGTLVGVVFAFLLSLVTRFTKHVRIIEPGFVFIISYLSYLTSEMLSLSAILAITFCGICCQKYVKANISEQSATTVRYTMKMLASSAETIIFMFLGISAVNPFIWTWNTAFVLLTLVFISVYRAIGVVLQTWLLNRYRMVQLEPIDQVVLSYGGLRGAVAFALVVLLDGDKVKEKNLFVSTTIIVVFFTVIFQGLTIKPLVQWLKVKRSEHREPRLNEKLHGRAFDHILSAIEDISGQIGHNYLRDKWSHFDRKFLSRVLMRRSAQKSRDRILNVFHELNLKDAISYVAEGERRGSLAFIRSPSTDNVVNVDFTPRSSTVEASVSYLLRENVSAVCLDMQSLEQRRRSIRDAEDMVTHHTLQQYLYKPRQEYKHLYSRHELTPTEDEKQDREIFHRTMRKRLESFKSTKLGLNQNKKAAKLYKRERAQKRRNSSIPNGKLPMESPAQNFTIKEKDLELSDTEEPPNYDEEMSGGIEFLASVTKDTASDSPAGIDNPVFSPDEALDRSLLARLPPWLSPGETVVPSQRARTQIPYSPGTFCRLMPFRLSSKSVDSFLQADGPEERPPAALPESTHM
Procedure: Known NHE3 inhibitor Tenapanor, as well as non NHE3 inhibitors nigericin, BAM15, FCCP, or DMSO control, were diluted into Na-containing buffer and added to the apical compartment of the Transwell. Fluorescent readings were acquired every 5 minutes for a period of 30 minutes on a Flexstation microplate reader at dual excitation wavelengths of 495 nm and 439 nm and emission wavelength of 538 nm (Molecular Devices). The fluorescent ratio for pH indication was calculated from ratio of the two excitation wavelengths (495/439 nm).

[4] = tested on: mice; test: Gastrointestinal transit (Evans Blue dye front) in opioid induced constipation model; assay type: in vivo; conditions: oral vehicle, subcutaneous loperamide (0.3 to 6 mg/kg); 30-minute period; vehicle/vehicle approximately 70%
Procedure: Gastrointestinal transit is measured in mice treated with the peripherally acting μ-opioid agonist loperamide to assess the ability of selected example compounds to restore gastrointestinal motility in a model of opioid induced constipation. Approximately eight-week old, female, CD 1 rats are purchased from Envigo (Livermore, Calif.), are housed 4 per cage and acclimated for at least 48 hours before study initiation. Animals are fed standard laboratory rodent chow Harlan Teklad Global 2018 (Maddison, Wis.). […] 30 minutes later, animals are euthanized by carbon dioxide inhalation, and the length from the pylorus to cecum (whole length of the small intestine) and the length from the pylorus to the Evans Blue dye front are measured and recorded. For an individual animal, the length travelled by the Evans Blue dye front is divided by the length of the whole small intestine, measured from the pylorus to the cecum, and multiplied by 100, to provide the distance of the small intestine travelled by the dye as a percentage. […] The effect of example compounds on GIT motility in the presence of loperamide is calculated as the ability to restore vehicle/vehicle transit distance from the vehicle/loperamide transit, expressed as a percentage.

Compound	TEER compared with control [1]	intracellular pH compared with control ([2]; 3 μM, vs DMSO (FIG. 1C))	inhibition of NHE3 activity in enterocytes [3]	also measured
Fc1ccccc1Nc1nc2nonc2nc1Nc1ccccc1F [BAM15]	increased TEER compared with control	decrease intracellular pH	neither nigericin, BAM15 nor FCCP inhibited NHE3 activity	–
CN(C)C(=O)C(CCN1CCC(O)(c2ccc(Cl)cc2)CC1)(c1ccccc1)c1ccccc1 [loperamide]	–	–	–	length of the small intestine travelled by Evans Blue dye front [4]: ~25%
CO[C@@H]1C[C@@H](C[C@H]2CC[C@H](C)[C@H]([C@@H](C)C(=O)O)O2)O[C@]2(O[C@](C)([C@H]3CC[C@@](C)([C@@H]4O[C@@H]([C@H]5O[C@@](O)(CO)[C@H](C)C[C@@H]5C)C[C@@H]4C)O3)C[C@H]2C)[C@@H]1C [nigericin]	–	–	neither nigericin, BAM15 nor FCCP inhibited NHE3 activity	intracellular pH compared with control ([2]; apical dosing, vs DMSO (FIG. 1A)): reduced intracellular pH compared with control
CN1Cc2c(Cl)cc(Cl)cc2[C@H](c2cccc(S(=O)(=O)NCCOCCOCCNC(=O)NCCCCNC(=O)NCCOCCOCCNS(=O)(=O)c3cccc([C@@H]4CN(C)Cc5c(Cl)cc(Cl)cc54)c3)c2)C1 [tenapanor]	–	–	–	TEER relative to control ([1]; apical dosing, vs DMSO (FIG. 1B)): increase in TEER relative to control
FCCP	increased TEER compared with control	decrease intracellular pH	–	–
